The source of these data is patent US20240190896A1, “SMTP-7 DERIVATIVE AND USE THEREOF” (Shanghai Senhui Medicine Co., Ltd., priority 2021, published 2024).

A word on the AUC(0-t): it is exposure summed from dosing to a finite time, without extrapolation to infinity. Read a high AUC(0-t) as more exposure. What is called Cmax is the peak of the concentration-time curve. The Tmax is the time from dosing to the highest level. As a reminder, the half-life is how long it takes for the measured level to halve. High values mean slow loss, low ones fast loss.

Structures are written as SMILES.

Data set [1] can be described thus: Test Example 2: Pharmacokinetic study in rats (intravenous). Type of data set: in vivo, SD rats. The conditions noted are these: 5 mg/kg intravenous administration. The protocol: After they were well mixed by vortexing and ultrasonication, a 1 mg/mL clear solution was obtained for later use.
SD Rats, at the Age of 6-8 Weeks, Weighing about 180-240 g.
The pharmacokinetic parameters such as AUC(0−t), AUC(0−∞), T1/2, MRT, Cmax and Tmax were measured in rats according to the method of Test Example 1.

The nature of data set [2]: Test Example 1: Pharmacokinetic study in rats (intravenous). Type of data set: in vivo. The following applies: rat, SD rats, 5 mg/kg intravenous injection, plasma; for MRT last: read-out: MRT(0-t). The protocol:
A proper amount of each of SMTP-7 and compound 1 was weighed out, and 2% (final volume) DMSO and 98% (final volume) normal saline were added. After they were well mixed by vortexing and ultrasonication, a 1 mg/mL clear solution was obtained for later use.
SD Rats, at the Age of 6-8 Weeks, Weighing about 180-220 g.
About 0.20 mL of blood was collected for each sample via the jugular vein or other suitable is routes, and sodium heparin was used as the anticoagulant. The blood was placed on ice immediately after the collection. The collection was performed at a total of 10 time points: before administration, and 5 min, 0.25 h, 0.5 h, 1 h, 2 h, 4 h, 6 h, 10 h and 24 h after administration. The collected blood samples were placed in heparin anticoagulant blood collection tubes and centrifuged at 6800 g at 2-8° C. for 6 min to separate plasma. The plasma samples were stored in a freezer at −80° C. before analysis.
The plasma concentration of each test compound was determined. The analysis of quality control samples was performed while the samples were analyzed, and more than 66.7% of the quality control samples were required to have an accuracy of 80-120%.
When plasma drug concentration-time curves were plotted, BLQ was recorded as 0. When the pharmacokinetic parameters were calculated, the concentration before administration was calculated as 0; BLQ before Cmax (including “No peak”) was calculated as 0; and BLQ that occurs after Cmax (including “No peak”) was excluded from the calculation. The following pharmacokinetic parameters were calculated from the plasma concentration data of different time points using the non-compartmental analysis method of Phoenix WinNonlin 7.0 software: AUC(0−t), AUC(0−∞), T1/2, MRT, Cmax, Tmax, etc.

In the case of `[2H][C@](CCCN1Cc2c(cc(O)c3c2O[C@@](C)(CC/C=C(\C)CCC=C(C)C)[C@@H](O)C3)C1=O)(C(=O)O)N1Cc2c(cc(O)c3c2O[C@@](C)(CC/C=C(\C)CCC=C(C)C)[C@@H](O)C3)C1=O` [Compound 2, α-Deutero SMTP-7], in data set [1], the “AUC (comparison in words)” value is given as “did not greatly differ” and the “T1/2 (comparison in words)” value is reported as “did not greatly differ”.
Consider `[2H]C([2H])(CC[C@@H](C(=O)O)N1Cc2c(cc(O)c3c2O[C@@](C)(CC/C=C(\C)CCC=C(C)C)[C@@H](O)C3)C1=O)N1Cc2c(cc(O)c3c2O[C@@](C)(CC/C=C(\C)CCC=C(C)C)[C@@H](O)C3)C1=O` [Compound 1, δ-Deutero SMTP-7], for which, in data set [2], the AUC(0-t) was 11300 ng·h/mL, the Cmax was determined as 19100 ng/mL, the Tmax is 4.8 min and the half-life is 8.94 ± 0.61 h. In addition, the MRT last in data set [2] stood at 3.06 ± 0.25 h.
As to `[2H]C([2H])(C[C@@H](C(=O)O)N1Cc2c(cc(O)c3c2O[C@@](C)(CC/C=C(\C)CCC=C(C)C)[C@@H](O)C3)C1=O)CN1Cc2c(cc(O)c3c2O[C@@](C)(CC/C=C(\C)CCC=C(C)C)[C@@H](O)C3)C1=O` [Compound 4, γ-Deutero SMTP-7], in data set [1], the “AUC (comparison in words)” value was “lower AUC than SMTP-7” and the “T1/2 (comparison in words)” value is recorded as “lower T1/2”.
The matching figures for `[2H]C([2H])(CCN1Cc2c(cc(O)c3c2O[C@@](C)(CC/C=C(\C)CCC=C(C)C)[C@@H](O)C3)C1=O)[C@@H](C(=O)O)N1Cc2c(cc(O)c3c2O[C@@](C)(CC/C=C(\C)CCC=C(C)C)[C@@H](O)C3)C1=O` [Compound 3, β-Deutero SMTP-7]: “did not greatly differ” and “did not greatly differ”.
Consider `CC(C)=CCC/C(C)=C/CC[C@]1(C)Oc2c(c(O)cc3c2CN(CCC[C@@H](C(=O)O)N2Cc4c(cc(O)c5c4O[C@@](C)(CC/C=C(\C)CCC=C(C)C)[C@@H](O)C5)C2=O)C3=O)C[C@@H]1O` [SMTP-7, Stachybotrys microspore triprenyl phenol-7], for which, in data set [1], the “AUC (comparison in words)” value was “did not greatly differ” and the “T1/2 (comparison in words)” value is “did not greatly differ”. Besides, in data set [2], the AUC(0-t) came to 8010 ng·h/mL, the Cmax turned out to be 26300 ng/mL, the Tmax came to 4.8 min and the half-life was 6.69 ± 0.178 h. For the same compound, the MRT last in data set [2] came out at 0.465 ± 0.08 h.
